This passage reports IC50 and GI50 results from ChEMBL document CHEMBL5244230, “Artemisinin-derived hybrids and their anticancer activity” (Eur J Med Chem, 2020).

Each structure is given as a SMILES string.

One assay has as its system HT-29. Put plainly: Antiproliferative activity against human HT-29 cells assessed as reduction in cell viability. The class given is functional, cell-based.
In assay [1] the test system is MDA-MB-231. Put plainly: Antiproliferative activity against human MDA-MB-231 cells assessed as reduction in cell viability. The class given is functional, cell-based.
Another assay has as its system HCT-116. The assay is described as follows: Antiproliferative activity against human HCT-116 cells assessed as reduction in cell viability. The assay is classed as functional, cell-based. The following applies: Homo sapiens, HCT-116.
For the next assay, the system named is DLD-1. Put plainly: Cytotoxicity against human DLD-1 cells assessed as cell growth inhibition measured after 48 hrs by MTT assay. The assay is classed as functional.
The next assay concerns SiHa. Put plainly: Cytotoxicity against human SiHa cells assessed as cell growth inhibition measured after 48 hrs by MTT assay. The class given is functional.
The next assay deals with B16. The assay is described as follows: Cytotoxicity against mouse B16 cells assessed as cell growth inhibition measured after 48 hrs by MTT assay. The class given is functional. In general terms: Tetrazolium dyes change colour on reduction, which living cells bring about.
Another assay concerns A 172. Put plainly: Cytotoxicity against human A-172 cells assessed as cell growth inhibition measured after 48 hrs by MTT assay. The class given is functional.
The next assay deals with HeLa. Put plainly: Cytotoxicity against human HeLa cells assessed as cell growth inhibition measured after 48 hrs by MTT assay. The assay is classed as functional.
The nature of assay [2]: Cytotoxicity against human U87 cells assessed as cell growth inhibition measured after 48 hrs by MTT assay. The class given is functional, U-87MG ATCC. The settings on record: U-87 MG.
The test system of assay [3] is MDA-MB-231. The assay is described as follows: Antiproliferative activity against human MDA-MB-231 cells. The assay is classed as functional, cell-based. The following applies: Homo sapiens, MDA-MB-231.
In the next assay the test system is A549. The assay is described as follows: Antiproliferative activity against human A549 cells. The assay is classed as functional, cell-based.

With `Cc1c(Cl)c(=O)oc2cc(OCCn3cc(CO[C@H]4O[C@@H]5O[C@@]6(C)CC[C@H]7[C@H](C)CC[C@@H]([C@H]4C)[C@@]57OO6)nn3)ccc12`, the IC50 with HT-29, in the assay with MDA-MB-231 [1] and in the assay on HCT-116 was 430 nM each time.

On to `C[C@H]1[C@@H](n2cc(-c3ccccc3)nn2)O[C@@H]2O[C@@]3(C)CC[C@H]4[C@H](C)CC[C@@H]1[C@@]24OO3`, for which the 50% growth inhibitory concentration (GI50) (in the assay on DLD-1; in the assay on SiHa; in the assay on B16; in the assay on A 172; in the assay on HeLa; in assay [2]) was 130 nM throughout.

For `C[C@H]1[C@H](n2nncc2-c2ccccc2C(F)(F)F)O[C@@H]2O[C@@]3(C)CC[C@H]4[C@H](C)CC[C@@H]1[C@@]24OO3`, the concentration for 50% growth inhibition (GI50) (with DLD-1; in the assay on SiHa; in the assay with B16; in the assay with A 172; in the assay on HeLa; in assay [2]) was 40 nM throughout.

For `Cc1ccccc1NS(=O)(=O)/C=C/c1ccc(OCc2ccc(C(=O)NCCO[C@@H]3O[C@@H]4O[C@@]5(C)CC[C@H]6[C@H](C)CC[C@@H]([C@H]3C)[C@@]46OO5)cc2)cc1`, the IC50 in the assay on HT-29 and with MDA-MB-231 [3] was 90 nM throughout.

For `Cc1c(C)c2ccc(OCCn3cc(CO[C@H]4O[C@@H]5O[C@@]6(C)CC[C@H]7[C@H](C)CC[C@@H]([C@H]4C)[C@@]57OO6)nn3)cc2oc1=O`, the half-inhibitory concentration (IC50) in the assay with HT-29, in the assay with MDA-MB-231 [1] and in the assay on HCT-116 was 430 nM throughout.

Take `C[C@H]1[C@H](OCCNC(=O)c2ccc(COc3ccc(/C=C/S(=O)(=O)Nc4ccccc4)cc3)cc2)O[C@@H]2O[C@@]3(C)CC[C@H]4[C@H](C)CC[C@@H]1[C@@]24OO3`: the IC50 with HT-29 and in the assay with MDA-MB-231 [3] was 90 nM in each case.

For the compound `CCOC(=O)c1cc2ccc(OCCn3cc(CO[C@H]4O[C@@H]5O[C@@]6(C)CC[C@H]7[C@H](C)CC[C@@H]([C@H]4C)[C@@]57OO6)nn3)cc2oc1=O`, the concentration for half-maximal inhibition (IC50) with HT-29 and with MDA-MB-231 [1] was 430 nM each time.

As to `C[C@H]1[C@H](n2nncc2-c2ccc(F)cc2)O[C@@H]2O[C@@]3(C)CC[C@H]4[C@H](C)CC[C@@H]1[C@@]24OO3`, the GI50 (in the assay on DLD-1; in the assay on SiHa; in the assay on B16; in the assay on A 172; with HeLa; in [2]) was 40 nM each time.

Turning to `C[C@H]1[C@@H](OCc2cn(CCOc3ccc4c(C(F)(F)F)cc(=O)oc4c3)nn2)O[C@@H]2O[C@@]3(C)CC[C@H]4[C@H](C)CC[C@@H]1[C@@]24OO3`, the 50% inhibitory concentration (IC50) in the assay on HT-29, in the assay on MDA-MB-231 [1] and in the assay on HCT-116 was 430 nM in each case.

Take `C[C@H]1[C@H](OCCNC(=O)c2ccc(COc3ccc(/C=C/S(=O)(=O)Nc4ccccc4Cl)cc3)cc2)O[C@@H]2O[C@@]3(C)CC[C@H]4[C@H](C)CC[C@@H]1[C@@]24OO3`: the IC50 in the assay on HT-29, with A549 and in the assay with MDA-MB-231 [3] was 90 nM each time.

Consider `C[C@H]1[C@H](n2nncc2-c2cc(F)cc(F)c2)O[C@@H]2O[C@@]3(C)CC[C@H]4[C@H](C)CC[C@@H]1[C@@]24OO3`, for which the GI50 (in the assay on DLD-1; with SiHa; in the assay with B16; in the assay on A 172; with HeLa; in assay [2]) was 40 nM throughout.

`C[C@@H]1[C@@H](n2cc(-c3cc(F)cc(F)c3)nn2)O[C@@H]2O[C@@]3(C)CC[C@H]4[C@H](C)CC[C@@H]1[C@@]24OO3`: the GI50 (in the assay with DLD-1; in the assay on SiHa; in the assay on B16; in the assay on A 172; with HeLa; in assay [2]) was 30 nM throughout.

For the compound `CCCCCc1ccc(-c2cn([C@H]3O[C@@H]4O[C@@]5(C)CC[C@H]6[C@H](C)CC[C@@H]([C@@H]3C)[C@@]46OO5)nn2)cc1`, the GI50 (in the assay with DLD-1; in the assay on SiHa; in the assay on B16; with A 172; in the assay with HeLa; in [2]) was 30 nM in each case.

As for `C[C@H]1[C@H](n2nncc2-c2ccc(Cl)cc2)O[C@@H]2O[C@@]3(C)CC[C@H]4[C@H](C)CC[C@@H]1[C@@]24OO3`, the GI50 (in the assay on DLD-1; in the assay with SiHa; in the assay with B16; in the assay with A 172; in the assay on HeLa; in assay [2]) was 40 nM in each case.

Regarding `CCOC(=O)c1cc2ccc(OCCCn3cc(CO[C@H]4O[C@@H]5O[C@@]6(C)CC[C@H]7[C@H](C)CC[C@@H]([C@H]4C)[C@@]57OO6)nn3)cc2oc1=O`, the 50% inhibitory concentration (IC50) in the assay on HT-29 and in the assay on MDA-MB-231 [1] was 430 nM in each case.

Consider `Cc1ccc(-c2cnnn2[C@@H]2O[C@@H]3O[C@@]4(C)CC[C@H]5[C@H](C)CC[C@@H]([C@H]2C)[C@@]35OO4)cc1`, for which the concentration for 50% growth inhibition (GI50) (in the assay with DLD-1; with SiHa; with B16; with A 172; in the assay with HeLa; in assay [2]) was 40 nM throughout.

For the compound `Cc1c(Cl)c(=O)oc2cc(OCCCn3cc(CO[C@H]4O[C@@H]5O[C@@]6(C)CC[C@H]7[C@H](C)CC[C@@H]([C@H]4C)[C@@]57OO6)nn3)ccc12`, the concentration for half-maximal inhibition (IC50) in the assay with HT-29 and in the assay with MDA-MB-231 [1] was 430 nM in each case.

Consider `Cc1cc(=O)oc2cc(OCCn3cc(CO[C@H]4O[C@@H]5O[C@@]6(C)CC[C@H]7[C@H](C)CC[C@@H]([C@H]4C)[C@@]57OO6)nn3)ccc12`, for which the half-maximal inhibitory concentration (IC50) in the assay on HT-29, in the assay with MDA-MB-231 [1] and with HCT-116 was 430 nM in each case.

Consider `COc1ccc(-c2cn([C@H]3O[C@@H]4O[C@@]5(C)CC[C@H]6[C@H](C)CC[C@@H]([C@@H]3C)[C@@]46OO5)nn2)cc1`, for which the concentration for 50% growth inhibition (GI50) (in the assay on DLD-1; in the assay on SiHa; in the assay on B16; in the assay on A 172; in the assay on HeLa; in assay [2]) was 30 nM throughout.

As for `Cc1cc(=O)oc2cc(OCCCn3cc(CO[C@H]4O[C@@H]5O[C@@]6(C)CC[C@H]7[C@H](C)CC[C@@H]([C@H]4C)[C@@]57OO6)nn3)ccc12`, the IC50 in the assay on HT-29 and in the assay on MDA-MB-231 [1] was 430 nM in each case.

As to `C[C@@H]1[C@@H](n2cc(-c3ccc(F)cc3)nn2)O[C@@H]2O[C@@]3(C)CC[C@H]4[C@H](C)CC[C@@H]1[C@@]24OO3`, the 50% growth inhibitory concentration (GI50) (in the assay with DLD-1; in the assay with SiHa; with B16; with A 172; in the assay with HeLa; in [2]) was 30 nM throughout.

As to `Cc1c(C)c2ccc(OCCCn3cc(CO[C@H]4O[C@@H]5O[C@@]6(C)CC[C@H]7[C@H](C)CC[C@@H]([C@H]4C)[C@@]57OO6)nn3)cc2oc1=O`, the IC50 with HT-29 and in the assay with MDA-MB-231 [1] was 430 nM each time.

On to `C[C@H]1[C@H](OCCNC(=O)c2ccc(COc3ccc(/C=C/S(=O)(=O)Nc4c(Cl)cccc4Cl)cc3)cc2)O[C@@H]2O[C@@]3(C)CC[C@H]4[C@H](C)CC[C@@H]1[C@@]24OO3`, for which the IC50 with HT-29, in the assay with A549 and with MDA-MB-231 [3] was 90 nM each time.

Turning to `C[C@@H]1[C@@H](n2cc(-c3cccc(Cl)c3)nn2)O[C@@H]2O[C@@]3(C)CC[C@H]4[C@H](C)CC[C@@H]1[C@@]24OO3`, the concentration for 50% growth inhibition (GI50) (with DLD-1; in the assay on SiHa; in the assay on B16; in the assay on A 172; in the assay with HeLa; in assay [2]) was 30 nM throughout.

For the compound `C[C@@H]1[C@@H](n2cc(-c3ccccc3C(F)(F)F)nn2)O[C@@H]2O[C@@]3(C)CC[C@H]4[C@H](C)CC[C@@H]1[C@@]24OO3`, the GI50 (in the assay on DLD-1; with SiHa; with B16; in the assay on A 172; with HeLa; in assay [2]) was 30 nM throughout.

For `CCCCCc1ccc(-c2cnnn2[C@@H]2O[C@@H]3O[C@@]4(C)CC[C@H]5[C@H](C)CC[C@@H]([C@H]2C)[C@@]35OO4)cc1`, the GI50 (with DLD-1; in the assay with SiHa; with B16; with A 172; with HeLa; in [2]) was 40 nM in each case.

With `C[C@H]1[C@H](n2nncc2-c2ccccc2)O[C@@H]2O[C@@]3(C)CC[C@H]4[C@H](C)CC[C@@H]1[C@@]24OO3`, the 50% growth inhibitory concentration (GI50) (with DLD-1; with SiHa; in the assay with B16; with A 172; with HeLa; in assay [2]) was 40 nM each time.

As for `C[C@H]1[C@@H](OCc2cn(CCCOc3ccc4c(C(F)(F)F)cc(=O)oc4c3)nn2)O[C@@H]2O[C@@]3(C)CC[C@H]4[C@H](C)CC[C@@H]1[C@@]24OO3`, the half-maximal inhibitory concentration (IC50) in the assay on HT-29, in the assay with MDA-MB-231 [1] and in the assay on HCT-116 was 430 nM in each case.

As to `COc1ccc(-c2cnnn2[C@@H]2O[C@@H]3O[C@@]4(C)CC[C@H]5[C@H](C)CC[C@@H]([C@H]2C)[C@@]35OO4)cc1`, the GI50 (with DLD-1; in the assay with SiHa; in the assay with B16; in the assay on A 172; in the assay on HeLa; in assay [2]) was 40 nM each time.
